One assay has as its target CDK6/CyclinD3 (Homo sapiens, UniProt Q00534). The experiment in a line: Kinase activity test (mobility shift assay, EZ Reader), CDK6. To be noted: CDK6/CyclinD3 5.00 nM, ATP 350 μM, FL-Peptide34. The format is biochemical.
Assay [1] concerns ovarian cancer cell A2780. Briefly: Cellular antiproliferative assay (MTT, 5 days), A2780. Type of assay: cell-based, human. Particulars: A2780 cells, 5 days incubation. The protocol:
(§1) Human breast cancer cell MCF-7, ovarian cancer cell A2780, human mantle cell lymphoma cell JEKO-1. DMEM medium (Bio-Channel), DMSO (dimethyl sulfoxide), MTT (thiazolyl blue), 0.25% EDTA-Tripsin (tryptic digest), 1×PBS (phosphate buffer, PH7.2), 96-well plate (Corning), fetal bovine serum (FBS), 10,000 U/mL penicillin-G/streptomycin, high-speed cryo-centrifuge (EPPENDORF 5810R), enzyme-linked immunoassay (Tecan Spark).
(§2) • A) Tumor cells were cultured in DMEM (high sugar with 10% FBS and 100 U/mL penicillin-G/streptomycin) at 37° C., 5% CO2 and saturated humidity until 80-90% dense. • B) Removed the culture medium from 10 cm Petri dishes; • C) Rinsed the cells once with 10 ml 1×PBS; • D) Added 4 ml 0.25% EDTA-Tripsin into 37° C., 5% CO2 incubator for trypsin digestion for 5 minutes, transferred to 15 ml centrifuge tube, centrifuged at 200 g for 5 minutes, discarded the supernatant to get cell precipitate; • E) Resuspended with 4 ml DMEM medium, counted and adjust to 50,000 cells/ml. • F) Added cell suspension to 96-well plate with 100 μL per well volume and incubated overnight at 37° C., 5% CO2 incubator.
(§3) • A) Preparation of gradient dilution solution of the tested compound: the test compound was configured into 1 mM reservoir solution.
(§4) • A) Taking the cell culture plate and adding 10 μL of 5 mg/ml MTT in the biosafety cabinet; • B) Putting the cell culture plate back into the incubator and continued incubation for 3 hours; • C) Taking the cell culture plate and removing the culture medium, adding 100 μL isopropanol (containing 0.4 mM HCl, 0.1% NP-40), and shaking the bed at room temperature for 30 min; and • D) Determining the absorbance value by selecting 570 nm on a TECAN enzyme-linked immunoassay detector.
(§5) The % Cell Viability was calculated using the following formula:
(§6) [formula] • Lum_HC: 0.1% DMSO control cell reading • Lum_Sample: cell readings with compound added • Lum_LC: Blank medium reading

Assay [2] concerns Human breast cancer cell MCF-7. Briefly: Cellular antiproliferative assay (MTT, 5 days), MCF-7. The format is cell-based. Particulars: MCF-7 cells, 5 days incubation. The protocol: as §1, §2, §3, §4, §5, §6
The test system of assay [3] is human mantle cell lymphoma cell JEKO-1. Briefly: Cellular antiproliferative assay (MTT, 5 days), JEKO-1. Type of assay: cell-based. To be noted: JEKO-1 cells, 5 days incubation. The protocol: as §1, §2, §3, §4, §5, §6

The structures appear in SMILES notation. Like-named read-outs stand apart in the source and are kept apart here.

The values below come from patent US20260078114A1, “COMPOUND USED AS INHIBITOR OF CDK4 KINASE AND USE THEREOF” (TYK MEDICINES, INC., priority 2022, published 2026).

The IC50 is the concentration at which inhibition is half-maximal.

Chain of CDK6/CyclinD3 (Q00534 whole entry, species assumed): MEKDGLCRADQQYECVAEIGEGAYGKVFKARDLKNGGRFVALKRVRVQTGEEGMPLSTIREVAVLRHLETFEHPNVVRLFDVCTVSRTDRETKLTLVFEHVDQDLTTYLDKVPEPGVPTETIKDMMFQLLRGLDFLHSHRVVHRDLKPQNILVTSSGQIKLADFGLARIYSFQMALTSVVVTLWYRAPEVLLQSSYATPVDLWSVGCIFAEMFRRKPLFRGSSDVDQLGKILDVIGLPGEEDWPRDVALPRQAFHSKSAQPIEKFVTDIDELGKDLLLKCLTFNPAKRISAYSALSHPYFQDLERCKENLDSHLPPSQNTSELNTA
Chain of CDK6/CyclinD3 (P30281 whole entry partner, species assumed): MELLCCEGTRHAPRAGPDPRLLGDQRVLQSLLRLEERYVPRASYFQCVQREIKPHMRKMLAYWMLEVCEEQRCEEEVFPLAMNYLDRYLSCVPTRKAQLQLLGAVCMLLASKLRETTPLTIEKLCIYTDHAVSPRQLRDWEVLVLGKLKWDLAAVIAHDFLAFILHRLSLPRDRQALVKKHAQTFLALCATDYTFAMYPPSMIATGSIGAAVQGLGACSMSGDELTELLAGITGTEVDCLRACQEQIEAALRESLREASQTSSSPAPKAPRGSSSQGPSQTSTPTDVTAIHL

In the case of `CN1CCCn2c1nc1c(F)cc(-c3nc(NC4CCC(F)(F)CC4)ncc3Cl)cc12` [TB-95, 5-chloro-N-(4,4-difluorocyclohexyl)-4-(9-fluoro-1-methyl-1,2,3,4-tetrahydrobenzo[4,5]imidazo[1,2-a]pyrimidin-7-yl)pyrimidin-2-amine], the IC50 on CDK6/CyclinD3 was above 500 nM.

As to `CC(C)n1c(N2CCOC2=O)nc2c(F)cc(-c3nc(Nc4ccc(S(=O)(=O)NC5(C#N)CC5)cc4)ncc3Cl)cc21` [TB-68], the IC50 on CDK6/CyclinD3 is above 500 nM.

`CN1CCCn2c1nc1c(F)cc(-c3nc(N[C@@H]4CCOC[C@H]4O)ncc3C(F)(F)F)cc12` [TB-41, (3S,4R)-4-((4-(9-fluoro-1-methyl-1,2,3,4-tetrahydrobenzo[4,5]imidazo[1,2-a]pyrimidin-7-yl)-5-(trifluoromethyl)pyrimidin-2-yl)amino)tetrahydro-2H-pyran-3-ol]: the IC50 in assay [1] (Homo sapiens, 120 h) was 500 to 2000 nM; in assay [2] (Homo sapiens, MCF7, 120 h), 500 to 2000 nM; at CDK6/CyclinD3 it was above 500 nM; in assay [3] (Homo sapiens, 120 h), 500 to 2000 nM.

As for `CN1CCCn2c1nc1c(F)cc(-c3nc(Nc4ccncc4)ncc3Cl)cc12` [TB-90], the IC50 in assay [1] (Homo sapiens, 120 h) is at most 500 nM; in assay [2] (Homo sapiens, MCF7, 120 h), 500 to 2000 nM; in assay [3] (Homo sapiens, 120 h), at most 500 nM.

`CC(C)n1c(N(C)C)nc2c(F)cc(-c3nc(N[C@H]4CC[C@@H](NS(C)(=O)=O)CC4)ncc3Cl)cc21` [TB-4]: at CDK6/CyclinD3, the IC50 was above 500 nM.

As for `COC(=O)N(C)c1nc2c(F)cc(-c3nc(N[C@@H]4CCOC[C@H]4O)ncc3Cl)cc2n1C(C)C` [TB-8, methyl (6-(5-chloro-2-(((3S,4R)-3-hydroxytetrahydro-2H-pyran-4-yl)amino)pyrimidin-4-yl)-4-fluoro-1-isopropyl-1H-benzo[d]imidazol-2-yl)(methyl)carbamate], the IC50 in assay [1] (Homo sapiens, 120 h) is at most 500 nM; in assay [2] (Homo sapiens, MCF7, 120 h), 500 to 2000 nM; in assay [3] (Homo sapiens, 120 h) it was at most 500 nM.

Turning to `CC(C)n1c(N2CCOC2=O)nc2c(F)cc(-c3nc(Nc4ccc(S(=O)(=O)NCCN(C)C)cc4)nc4[nH]cnc34)cc21` [TB-70], the IC50 in assay [1] (Homo sapiens, 120 h) is at most 500 nM; in assay [2] (Homo sapiens, MCF7, 120 h), at most 500 nM; in assay [3] (Homo sapiens, 120 h), at most 500 nM.

For `CN1CCCn2c1nc1c(F)cc(-c3nc(N[C@@H]4CCOC[C@H]4O)ncc3F)cc12` [TB-42, (3S,4R)-4-((5-fluoro-4-(9-fluoro-1-methyl-1,2,3,4-tetrahydrobenzo[4,5]imidazo[1,2-a]pyrimidin-7-yl)pyrimidin-2-yl)amino)tetrahydro-2H-pyran-3-ol], the IC50 is at most 500 nM in assay [1] (Homo sapiens, 120 h); at most 500 nM in assay [2] (Homo sapiens, MCF7, 120 h); at most 500 nM in assay [3] (Homo sapiens, 120 h).

`CC(C)n1c(N2CCCOC2=O)nc2c(F)cc(-c3nc(N[C@@H]4CCOC[C@H]4O)ncc3Cl)cc21` [TB-25]: the IC50 in assay [1] (Homo sapiens, 120 h) was at most 500 nM; in assay [2] (Homo sapiens, MCF7, 120 h), 500 to 2000 nM; in assay [3] (Homo sapiens, 120 h), at most 500 nM.

For the compound `CNS(=O)(=O)N1CCC(Nc2ncc(Cl)c(-c3cc(F)c4nc5n(c4c3)CCCN5C)n2)CC1` [TB-144, 4-((5-chloro-4-(9-fluoro-1-methyl-1,2,3,4-tetrahydrobenzo[4,5]imidazo[1,2-a]pyrimidin-7-yl)pyrimidin-2-yl)amino)-N-methylpiperidine-1-sulfonamide], the IC50 is at most 500 nM in assay [1] (Homo sapiens, 120 h); at most 500 nM in assay [2] (Homo sapiens, MCF7, 120 h); at most 500 nM in assay [3] (Homo sapiens, 120 h).

In the case of `CC(C)n1c(N2CCOC2=O)nc2c(F)cc(-c3nc(NC4CCN(S(=O)(=O)C5CC5)CC4)ncc3Cl)cc21` [TB-33], the IC50 in assay [1] (Homo sapiens, 120 h) is at most 500 nM; in assay [2] (Homo sapiens, MCF7, 120 h) it was at most 500 nM; in assay [3] (Homo sapiens, 120 h) it was at most 500 nM.

In the case of `CC1CCN(C)c2nc3c(F)cc(-c4nc(NC5CCN(S(C)(=O)=O)CC5)ncc4Cl)cc3n21` (stereo not drawn) [TB-51, 5-chloro-4-(9-fluoro-1,4-dimethyl-1,2,3,4-tetrahydrobenzo[4,5]imidazo[1,2-a]pyrimidin-7-yl)-N-(1-(methylsulfonyl)piperidin-4-yl)pyrimidin-2-amine], the IC50 in assay [1] (Homo sapiens, 120 h) is at most 500 nM; in assay [2] (Homo sapiens, MCF7, 120 h) it was at most 500 nM; in assay [3] (Homo sapiens, 120 h) it was at most 500 nM.

Consider `CN1CCCn2c1nc1c(F)cc(-c3nc(N[C@@H]4CCOC[C@H]4O)ncc3Cl)cc12` [TB-40], for which the IC50 in assay [1] (Homo sapiens, 120 h) was at most 500 nM; in assay [2] (Homo sapiens, MCF7, 120 h), at most 500 nM; in assay [3] (Homo sapiens, 120 h) it was at most 500 nM.

Take `CC(C)n1c(N2CCOC2=O)nc2c(F)cc(-c3nc(Nc4ccc(S(=O)(=O)NCCN(C)C)cc4)ncc3Cl)cc21` [TB-38, 4-((5-chloro-4-(4-fluoro-1-isopropyl-2-(2-oxooxazolidin-3-yl)-1H-benzo[d]imidazol-6-yl)pyrimidin-2-yl)amino)-N-(2-(dimethylamino)ethyl)benzenesulfonamide]: the IC50 was at most 500 nM in assay [1] (Homo sapiens, 120 h); at most 500 nM in assay [2] (Homo sapiens, MCF7, 120 h); at most 500 nM in assay [3] (Homo sapiens, 120 h).

With `C[C@@H]1CCN(C)c2nc3c(F)cc(-c4nc(N[C@@H]5CCOC[C@H]5O)ncc4Cl)cc3n21` [TB-91, (3S,4R)-4-((5-chloro-4-((R)-9-fluoro-1,4-dimethyl-1,2,3,4-tetrahydrobenzo[4,5]imidazo[1,2-a]pyrimidin-7-yl)pyrimidin-2-yl)amino)tetrahydro-2H-pyran-3-ol], the IC50 in assay [1] (Homo sapiens, 120 h) is at most 500 nM; in assay [2] (Homo sapiens, MCF7, 120 h) it was at most 500 nM; in assay [3] (Homo sapiens, 120 h), at most 500 nM.

For `CN1C(=O)CC(C)(C)n2c1nc1c(F)cc(-c3cc(N[C@@H]4CCOC[C@H]4O)ncc3Cl)cc12` [TB-162], the IC50 in assay [1], in assay [2] (read-out: MCF7 IC50) and in assay [3] was at most 500 nM throughout.

Turning to `CN1CCCn2c1nc1c(F)cc(-c3nc(Nc4ccc(C#N)cc4)ncc3Cl)cc12` [TB-133, 4-((5-chloro-4-(9-fluoro-1-methyl-1,2,3,4-tetrahydrobenzo[4,5]imidazo[1,2-a]pyrimidin-7-yl)pyrimidin-2-yl)amino)benzonitrile], the IC50 in assay [1] (Homo sapiens, 120 h) was at most 500 nM; in assay [2] (Homo sapiens, MCF7, 120 h) it was at most 500 nM; in assay [3] (Homo sapiens, 120 h), at most 500 nM.

Regarding `CC1(C)CSc2nc3c(F)cc(-c4nc(N[C@@H]5CCOC[C@H]5O)ncc4Cl)cc3n2C1` [TB-146], the IC50 in assay [1], in assay [2] (read-out: MCF7 IC50) and in assay [3] was at most 500 nM each time.

For `CN1CCn2c1nc1c(F)cc(-c3nc(NC4CCN(S(C)(=O)=O)CC4)ncc3Cl)cc12` [TB-52, 5-chloro-4-(8-fluoro-1-methyl-2,3-dihydro-1H-benzo[d]imidazo[1,2-a]imidazol-6-yl)-N-(1-(methylsulfonyl)piperidin-4-yl)pyrimidin-2-amine], the IC50 is at most 500 nM in assay [1] (Homo sapiens, 120 h); at most 500 nM in assay [2] (Homo sapiens, MCF7, 120 h); at most 500 nM in assay [3] (Homo sapiens, 120 h).

Regarding `CC(C)n1c(N2CC[C@H](O)C2)nc2c(F)cc(-c3nc(N[C@@H]4CCOC[C@H]4O)ncc3Cl)cc21` [TB-6, (S)-1-(6-(5-chloro-2-(((3S,4R)-3-hydroxytetrahydro-2H-pyran-4-yl)amino)pyrimidin-4-yl)-4-fluoro-1-isopropyl-1H-benzo[d]imidazol-2-yl)pyrrolidin-3-ol], the IC50 was at most 500 nM in assay [1] (Homo sapiens, 120 h); 500 to 2000 nM in assay [2] (Homo sapiens, MCF7, 120 h); at most 500 nM in assay [3] (Homo sapiens, 120 h).

Consider `C[C@H]1CCN(C)c2nc3c(F)cc(-c4cc(N[C@@H]5CCOC[C@H]5O)ncc4Cl)cc3n21` [TB-149], for which the IC50 in assay [1], in assay [2] (read-out: MCF7 IC50) and in assay [3] was at most 500 nM throughout.

`COC(=O)N1CCC(Nc2ncc(Cl)c(-c3cc(F)c4nc5n(c4c3)CCCN5C)n2)CC1` [TB-93, methyl 4-((5-chloro-4-(9-fluoro-1-methyl-1,2,3,4-tetrahydrobenzo[4,5]imidazo[1,2-a]pyrimidin-7-yl)pyrimidin-2-yl)amino)piperidine-1-carboxylate]: the half-inhibitory concentration (IC50) in assay [1] (Homo sapiens, 120 h) is at most 500 nM; in assay [2] (Homo sapiens, MCF7, 120 h), 500 to 2000 nM; on CDK6/CyclinD3, above 500 nM; in assay [3] (Homo sapiens, 120 h), at most 500 nM.

In the case of `CC(C)n1c(N2CCCC2=O)nc2c(F)cc(-c3nc(N[C@@H]4CCOC[C@H]4O)ncc3Cl)cc21` [TA-54], the IC50 on CDK6/CyclinD3 was above 500 nM.

Take `COCc1cc(Nc2ncc(Cl)c(-c3cc(F)c4nc5n(c4c3)CCCN5C)n2)ccn1` [TB-130, 5-chloro-4-(9-fluoro-1-methyl-1,2,3,4-tetrahydrobenzo[4,5]imidazo[1,2-a]pyrimidin-7-yl)-N-(2-(methoxymethyl)pyridin-4-yl)pyrimidin-2-amine]: the IC50 in assay [1] (Homo sapiens, 120 h) was at most 500 nM; in assay [2] (Homo sapiens, MCF7, 120 h), at most 500 nM; in assay [3] (Homo sapiens, 120 h), at most 500 nM.

Take `CC(C)n1c(N2CCOC2=O)nc2c(F)cc(-c3nc(NC4CCN(S(C)(=O)=O)CC4)ncc3F)cc21` [TB-28]: the 50% inhibitory concentration (IC50) in assay [1] (Homo sapiens, 120 h) was at most 500 nM; in assay [2] (Homo sapiens, MCF7, 120 h), at most 500 nM; in assay [3] (Homo sapiens, 120 h), at most 500 nM.
